From ChEMBL document CHEMBL1201862, “PubChem BioAssay data set” (2004) come the findings set out here.

Assay in all cases: NCI-60 cell line screen, 48 h
Experiment [1] has as its system A549.
Experiment [2] concerns EKVX.
Experiment [3] concerns HCC 2998.
Experiment [4] deals with HCT-15.
Experiment [5] concerns IGROV-1.
The subject of experiment [6] is M14.
Experiment [7] concerns MDA-N.
Experiment [8] relates to NCI-H226.
Experiment [9] relates to OVCAR-3.
Experiment [10] has as its system OVCAR-4.
Experiment [11] concerns OVCAR-8.
Experiment [12] deals with RPMI-8226.
Experiment [13] concerns SK-MEL-2.
Experiment [14] relates to SN12C.
For experiment [15], the system named is SNB-19.
Experiment [16] has as its system SNB-75.
Experiment [17] deals with SW-620.
Experiment [18] has as its system TK-10.
In experiment [19] the test system is U-251.

SMILES strings stand for the structures.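 1) Cells in 96-well plates. 2) Compound, 48 h, 5 concentrations. 3) Linear interpolation between surrounding doses. 4) Unreached endpoint = highest concentration. GI50: concentration for 50% inhibition of growth.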 Calls of active or inactive are those of the source. No stated cut-off is given here; in the data, active = GI50 up to about 1.1 µM and inactive = higher.

For the molecule `Ic1cccc(/C=C/CN2CCN(CCOC(c3ccccc3)c3ccccc3)CC2)c1`, the GI50 was 17.5 µM (inactive) in experiment [1]; 17.7 µM (inactive) in experiment [2]; 6.97 µM (inactive) in experiment [3]; 14.2 µM in experiment [4]; 19.7 µM (inactive) in [5]; 14.6 µM (inactive) in experiment [6]. For the same molecule, the GI50 is 17.9 µM (inactive) in experiment [7]; 17.1 µM (inactive) in [8]; 16.7 µM (inactive) in [9]; 17.5 µM (inactive) in [10]; 16 µM (inactive) in experiment [11]; 3.01 µM (inactive) in [12]. In addition, the GI50 in experiment [13] is 17.7 µM (inactive); in [14], 13.9 µM (inactive); in experiment [15], 16.3 µM (inactive); in experiment [16] it was 11.5 µM (inactive); in experiment [17], 26.7 µM (inactive); in experiment [18] it was 16.1 µM (inactive). Besides, the GI50 in [19] was 13.6 µM (inactive).

`COc1cc(/C=N/c2nc3cc4sc(/N=C/c5cc(OC)c(OC)c(OC)c5)nc4cc3s2)cc(OC)c1OC`: the GI50 was 40.5 µM (inactive) in experiment [1]; 42 µM (inactive) in experiment [2]; > 100 µM (inactive) in experiment [3]; 55.2 µM in [4]; > 100 µM (inactive) in [5]; 66.8 µM (inactive) in experiment [6]. Also, the GI50 in experiment [7] is 27 µM (inactive); in experiment [8], 31.4 µM (inactive); in experiment [9] it was 32.7 µM (inactive); in experiment [10], > 100 µM (inactive); in experiment [11] it was 95.5 µM (inactive); in [12], 51.2 µM (inactive). Besides, the GI50 was 72.4 µM (inactive) in [13]; 43 µM (inactive) in [14]; > 100 µM (inactive) in experiment [15]; 75 µM (inactive) in [16]; 33.1 µM (inactive) in experiment [17]; > 100 µM (inactive) in experiment [18]. Also, the GI50 in experiment [19] is 46.1 µM (inactive).

Turning to `CCCCCC/C=C\CCCCCCCCCC1=CC(=O)C=C(OC)C1=O` [IRISQUINONE A], the GI50 was 4.06 µM (inactive) in [1]; 3.57 µM (inactive) in experiment [2]; 8.24 µM (inactive) in experiment [3]; 2.1 µM in experiment [4]; 2.23 µM (inactive) in [5]; 4.19 µM (inactive) in [6]. Further, the GI50 is 6.5 µM (inactive) in experiment [7]; 2.52 µM (inactive) in experiment [8]; 3.98 µM (inactive) in experiment [9]; 2.05 µM (inactive) in experiment [10]; 0.593 µM (active) in experiment [11]; 2.21 µM (inactive) in experiment [12]. The GI50 in [13] is 4.34 µM (inactive); in experiment [14] it was 3.03 µM (inactive); in experiment [15] it was 2.89 µM (inactive); in experiment [16], 2.43 µM (inactive); in experiment [17], 4.6 µM (inactive); in experiment [18], 6.05 µM (inactive). Besides, the GI50 in [19] was 0.713 µM (active).

As to `CCOC(=O)c1ccc(-c2cccs2)[nH]1`, the GI50 is > 62.5 µM (inactive) in [1]; 38.8 µM (inactive) in experiment [2]; > 100 µM (inactive) in experiment [3]; 26.9 µM in experiment [4]; 83.2 µM (inactive) in experiment [5]; 63.5 µM (inactive) in experiment [6]. The GI50 in [7] is 66.8 µM (inactive); in experiment [8], > 100 µM (inactive); in experiment [9], 59.8 µM (inactive); in experiment [10] it was 31.6 µM (inactive); in experiment [11], > 55.5 µM (inactive); in experiment [12], > 70.8 µM (inactive). Besides, the GI50 in experiment [13] was > 100 µM (inactive); in experiment [14] it was > 100 µM (inactive); in experiment [15] it was 98.2 µM (inactive); in [16], > 100 µM (inactive); in [17] it was > 84.7 µM (inactive); in [18], > 65.3 µM (inactive). In experiment [19], the GI50 is > 76.4 µM (inactive).

For the molecule `C[C@@]1(c2ccccc2)O[C@@H]2C[C@H]3[C@@H]4CCC5=CC(=O)C=C[C@]5(C)[C@@]4(F)[C@@H](O)C[C@]3(C)[C@]2(C(=O)CO)O1` [AMCINAFIDE], the GI50 is 11.8 µM (inactive) in experiment [1]; 12.4 µM (inactive) in [2]; 17.3 µM (inactive) in [3]; 17.9 µM in experiment [4]; 17.7 µM (inactive) in experiment [5]; 16.1 µM (inactive) in experiment [6]. Moreover, the GI50 in experiment [7] was 17 µM (inactive); in experiment [8], 15.8 µM (inactive); in experiment [9], 15 µM (inactive); in [10], 15 µM (inactive); in [11], 17.5 µM (inactive); in experiment [12] it was < 0.01 µM (active). Further, the GI50 in experiment [13] is 14.4 µM (inactive); in experiment [14], 12.9 µM (inactive); in [15], 24.7 µM (inactive); in experiment [16] it was 26.9 µM (inactive); in experiment [17], 21.9 µM (inactive); in experiment [18], 19.5 µM (inactive). For the same molecule, the GI50 in [19] is 17.7 µM (inactive).

For `CSc1nc(-c2ccccc2)nc(C(C#N)C#N)n1`, the GI50 in experiment [1] was > 100 µM (inactive); in [2], > 100 µM (inactive); in experiment [3] it was > 100 µM (inactive); in experiment [4], more than 100 µM; in experiment [5] it was > 100 µM (inactive); in [6] it was > 100 µM (inactive). Further, the GI50 in experiment [7], in [8], in experiment [9], in experiment [10], in experiment [11] and in experiment [12] was > 100 µM (inactive) throughout. Besides, the GI50 in experiment [13], in [14], in experiment [15], in experiment [16], in [17] and in experiment [18] was > 100 µM (inactive) each time. Moreover, the GI50 in [19] was > 100 µM (inactive).

For `N#Cc1ccnc(C(=O)N2CCCC2C(=O)O)c1` (stereo not given), the GI50 in experiment [1] was > 100 µM (inactive); in [2] it was > 100 µM (inactive); in experiment [3] it was > 100 µM (inactive); in experiment [4] it was more than 100 µM; in experiment [5] it was > 100 µM (inactive); in experiment [6], > 100 µM (inactive). In addition, the GI50 in experiment [7], in experiment [8], in [9], in experiment [10], in experiment [11] and in experiment [12] was > 100 µM (inactive) throughout. Also, the GI50 in [13], in [14], in [15], in experiment [16], in [17] and in experiment [18] was > 100 µM (inactive) throughout. Further, the GI50 in experiment [19] is > 100 µM (inactive).

Regarding `NNC(=O)c1ccccc1Nc1ccccc1C(=O)NN`, the GI50 in [1] was > 100 µM (inactive); in experiment [2], > 100 µM (inactive); in experiment [3] it was > 100 µM (inactive); in experiment [4], more than 100 µM; in experiment [5], > 100 µM (inactive); in [6] it was > 100 µM (inactive). Also, the GI50 in experiment [7], in experiment [8], in [9], in experiment [10], in experiment [11] and in experiment [12] was > 100 µM (inactive) in each case. In addition, the GI50 in experiment [13], in [14], in experiment [15], in [16], in experiment [17] and in [18] was > 100 µM (inactive) each time. Moreover, in [19], the GI50 is > 100 µM (inactive).

As to `COc1cc(OC2OC(COC(=O)c3cc(O)c(O)c(O)c3)C(O)C(O)C2O)ccc1O` (stereo not given), the GI50 was > 100 µM (inactive) in [1]; > 100 µM (inactive) in experiment [2]; > 100 µM (inactive) in [3]; more than 100 µM in experiment [4]; > 100 µM (inactive) in experiment [5]; 90.8 µM (inactive) in experiment [6]. Further, the GI50 in [7] is 30.5 µM (inactive); in experiment [8], > 100 µM (inactive); in [9], 84.1 µM (inactive); in experiment [10], 55.3 µM (inactive); in [11], 89.9 µM (inactive); in [12], > 100 µM (inactive). Besides, the GI50 in experiment [13] was > 100 µM (inactive); in [14], 77.8 µM (inactive); in [15], > 100 µM (inactive); in experiment [16] it was > 100 µM (inactive); in experiment [17] it was 40.3 µM (inactive); in experiment [18], 76.7 µM (inactive). For the same molecule, the GI50 in experiment [19] is > 100 µM (inactive).

`CC(C)NCC(O)c1ccc(O)c2ncccc12` (stereo not given): the GI50 in experiment [1] is 6.82 µM (inactive); in experiment [2] it was 49.3 µM (inactive); in experiment [3] it was 46 µM (inactive); in experiment [4], 25.9 µM; in experiment [5] it was 33.5 µM (inactive); in [6], 42.4 µM (inactive). For the same molecule, the GI50 in experiment [7] is 91.2 µM (inactive); in experiment [8], > 100 µM (inactive); in experiment [9] it was 16 µM (inactive); in experiment [10], 68.5 µM (inactive); in experiment [11], 33.3 µM (inactive); in experiment [12], 49.1 µM (inactive). For the same molecule, the GI50 is 52.8 µM (inactive) in experiment [13]; 30.3 µM (inactive) in experiment [14]; > 100 µM (inactive) in [15]; > 100 µM (inactive) in [16]; 36.5 µM (inactive) in experiment [17]; 47.3 µM (inactive) in [18]. Further, the GI50 in [19] was 31.5 µM (inactive).
